{
  "source": "patent US8735611B2",
  "about": "“Crystalline forms of cabazitaxel” (ScinoPharm Taiwan, Ltd., priority 2011, dated 2014)",
  "test": "Dynamic vapor sorption (DVS) analysis",
  "format": "physicochemical",
  "details": "over 2 cycles tested; consistent with loss of AcOH upon dehumidification, confirmed by 1H NMR after DVS",
  "procedure": "XRPD analysis confirmed that Form C9 is crystalline. […] (FIG. 10c). Decomposition occurs at about 220° C., as indicated by the large weight loss observed by TGA around this temperature. […] This was confirmed by ^1H NMR spectroscopy after DVS analysis. KF titration of Form C9 indicated the presence of about 2.3% water.\nA hot solution of cabazitaxel (0.1 g) in 1 mL of AcOH and 0.5 mL of H2O was slowly cooled to room temperature. The mixture was filtered and the resulting solids were dried in a vacuum oven to give cabazitaxel Form C9 as a white solid (melting point: 152.5-159.3° C.). […] This was consistent with a loss of AcOH upon dehumification, which was confirmed by ^1H NMR spectroscopic analysis after the DVS test.",
  "data": [
    {"compound": "CO[C@H]1C(=O)[C@]2(C)[C@@H](OC)C[C@H]3OC[C@@]3(OC(C)=O)[C@H]2[C@H](OC(=O)c2ccccc2)[C@]2(O)C[C@H](OC(=O)[C@H](O)[C@@H](NC(=O)OC(C)(C)C)c3ccccc3)C(C)=C1C2(C)C", "note": "[Form C9, cabazitaxel]", "values": [
      {"measurement": "weight loss and gain upon changing humidity (DVS)", "result": "non-perfectly reversible weight loss and gain upon changing humidity"}
    ]}
  ]
}
